The results in this text go back to US20230339970A1, “CASEIN KINASE 1 DELTA MODULATORS” (priority 2020, published 2023).

Assay [1] has as its target T1, human recombinant GST cleaved CSNK1D (Homo sapiens, UniProt P48730).
T1 construct: GST (cleaved yes); purchased University of Dundee clone DU 19064
Description: Purified Enzyme Assay (ADP-Glo CSNK1D Kinase Assay). The note with it: 2 nM CSNK1D; peptide substrate 150 μM; ATP 20 μM; 45 minutes at room temperature. The class given is biochemical. The essentials: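 Percent activity derived from ADP-Glo quantification of ADP produced. Reactions: compound dose-response with human recombinant GST-cleaved CSNK1D, ATP and substrate peptide PLSRTL-pS-VASLPGL, incubated 45 min at room temperature.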

In the next assay the target is T2, human CSNK1D (Homo sapiens, UniProt P48730).
T2 construct: expressed in transfected cells
Briefly: Whole Cell nBRET CSNK1D Binding Assay. To be noted: living CHO cells stably expressing human CSNK1D tagged with nanoluciferase; NanoBret tracer 130 nM; 2 hours at 37 C.

T2 sequence (P48730 whole entry): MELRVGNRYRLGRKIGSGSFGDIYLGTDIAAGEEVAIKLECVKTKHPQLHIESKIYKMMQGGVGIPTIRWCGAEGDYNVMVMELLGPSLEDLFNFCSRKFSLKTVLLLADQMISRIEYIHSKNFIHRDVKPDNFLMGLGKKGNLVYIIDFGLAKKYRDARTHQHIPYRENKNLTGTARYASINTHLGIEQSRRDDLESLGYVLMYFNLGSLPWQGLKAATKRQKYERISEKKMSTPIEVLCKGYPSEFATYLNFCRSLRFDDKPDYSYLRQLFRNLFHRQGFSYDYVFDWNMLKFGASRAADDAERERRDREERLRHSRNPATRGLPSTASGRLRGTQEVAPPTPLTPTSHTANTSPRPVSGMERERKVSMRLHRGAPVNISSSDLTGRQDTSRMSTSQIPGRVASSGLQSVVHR
T1 sequence (P48730 whole entry): as above

A word on the IC50: it is the concentration that inhibits the measured activity by half. With `[2H]C([2H])([2H])[C@@]1(C(F)(F)F)Cn2nc(-c3ccc(F)cn3)c(-c3ccnc4[nH]nc(Cl)c34)c2CO1` (single isomer, unassigned) [Example 427, (*S)-3-(3-Chloro-1H-pyrazolo[3,4-b]pyridin-4-yl)-2-(5-fluoropyridin-2-yl)-6-(methyl-d3)-6-(trifluoromethyl)-6,7-dihydro-4H-pyrazolo[5,1-c][1,4]oxazine], the IC50 was 4 nM in assay [1] and 19 nM at human CSNK1D.

For the compound `Cn1cnc(-c2nn3c(c2-c2ccnc4[nH]ncc24)COC(C)(C)C3)c1` [Example 127, 6,6-Dimethyl-2-(1-methyl-1H-imidazol-4-yl)-3-(1H-pyrazolo[3,4-b]pyridin-4-yl)-6,7-dihydro-4H-pyrazolo[5,1-c][1,4]oxazine], the half-inhibitory concentration (IC50) in assay [1] amounted to 51 nM; at human CSNK1D, 3250 nM.

`Cc1cc(-c2c(-c3ccc(F)cn3)nn3c2O[C@H](C)CC3)c2cn[nH]c2n1` (single isomer, unassigned) [Example 201, (*R)-2-(5-Fluoro-2-pyridyl)-5-methyl-3-(6-methyl-1H-pyrazolo[3,4-b]pyridin-4-yl)-6,7-dihydro-5H-pyrazolo[5,1-b][1,3]oxazine]: the IC50 in assay [1] was found to be 17 nM; on human CSNK1D it was 246 nM.

As for `[2H]C([2H])([2H])C1(C([2H])([2H])[2H])Cn2nc(-c3ccc(F)cn3)c(-c3ccn4nccc4c3)c2CO1` [Example 396, 2-(5-Fluoropyridin-2-yl)-6,6-bis(methyl-d3)-3-(pyrazolo[1,5-a]pyridin-5-yl)-6,7-dihydro-4H-pyrazolo[5,1-c][1,4]oxazine], the IC50 was determined as 22 nM in assay [1] and 292 nM on human CSNK1D.

Take `CC1(C)COc2c(-c3ccn4nccc4c3)c(-c3ccc(F)cn3)nn2C1` [Example 449, 2-(5-Fluoropyridin-2-yl)-6,6-dimethyl-3-(pyrazolo[1,5-a]pyridin-5-yl)-6,7-dihydro-5H-pyrazolo[5,1-b][1,3]oxazine]: the concentration for half-maximal inhibition (IC50) in assay [1] came to 8 nM; at human CSNK1D it was 70 nM.

`Cc1cc(-c2c(-c3ccc(Cl)c(F)c3)nn3c2COCC3)c2cn[nH]c2n1` [Example 73, 2-(4-Chloro-3-fluoro-phenyl)-3-(6-methyl-1H-pyrazolo[3,4-b]pyridin-4-yl)-6,7-dihydro-4H-pyrazolo[5,1-c][1,4]oxazine]: the IC50 in assay [1] stood at 120 nM; on human CSNK1D it was 569 nM.

As for `Cc1cc(-c2c(-c3ccc(F)cn3)nn3c2CO[C@@](C)(C(F)(F)F)C3)c2cn[nH]c2n1` (single isomer, unassigned) [Example 180, (*R)-2-(5-Fluoropyridin-2-yl)-6-methyl-3-(6-methyl-1H-pyrazolo[3,4-b]pyridin-4-yl)-6-(trifluoromethyl)-6,7-dihydro-4H-pyrazolo[5,1-c][1,4]oxazine], the IC50 was 54 nM in assay [1] and 252 nM at human CSNK1D.

As to `Cc1cc(-c2c(-c3ccc(F)cn3)nn3c2CCC(F)(F)C3)c2cn[nH]c2n1` [Example 45, 4-(6,6-Difluoro-2-(5-fluoropyridin-2-yl)-4,5,6,7-tetrahydropyrazolo[1,5-a]pyridin-3-yl)-6-methyl-1H-pyrazolo[3,4-b]pyridine], the concentration for half-maximal inhibition (IC50) in assay [1] came to 12 nM; on human CSNK1D, 169 nM.

`C[C@@H]1OCc2c(-c3ccnc4[nH]ncc34)c(-c3ccc(F)cn3)nn2[C@@H]1C` (single isomer, unassigned) [Example 117, (6*S,7*R)-2-(5-Fluoropyridin-2-yl)-6,7-dimethyl-3-(1H-pyrazolo[3,4-b]pyridin-4-yl)-6,7-dihydro-4H-pyrazolo[5,1-c][1,4]oxazine]: the IC50 in assay [1] came out at 45 nM; on human CSNK1D, 925 nM.

For the compound `Fc1ccc(-c2nn3c(c2-c2c(F)cnc4[nH]ncc24)OC[C@H]2C[C@H]2C3)nc1` (stereo in doubt) [Example 481, (5a*S,6a*R)-3-(5-Fluoro-1H-pyrazolo[3,4-b]pyridin-4-yl)-2-(5-fluoropyridin-2-yl)-5a,6,6a,7-tetrahydro-5H-cyclopropa[e]pyrazolo[5,1-b][1,3]oxazepine], the concentration for half-maximal inhibition (IC50) in assay [1] worked out at 6 nM; on human CSNK1D, 65 nM.

Regarding `CCC(=O)Nc1cc(-c2c(-c3ccc(F)cn3)nn3c2OCCC3)ccn1` [Example 439, N-(4-(2-(5-Fluoropyridin-2-yl)-6,7-dihydro-5H-pyrazolo[5,1-b][1,3]oxazin-3-yl)pyridin-2-yl)propionamide], the figures for the IC50 (in assay [1]; at human CSNK1D) were 6 nM and 75 nM, respectively.

On to `C[C@]1(C(F)(F)F)Cn2nc(-c3ccc(F)cn3)c(-c3ccnc4[nH]ncc34)c2CO1` (single isomer, unassigned) [Example 178, (*R)-2-(5-Fluoropyridin-2-yl)-6-methyl-3-(1H-pyrazolo[3,4-b]pyridin-4-yl)-6-(trifluoromethyl)-6,7-dihydro-4H-pyrazolo[5,1-c][1,4]oxazine], for which the values for the IC50 (in assay [1]; at human CSNK1D) were 77 nM and 1000 nM, respectively.

For the compound `Fc1ccc(-c2nn3c(c2-c2ccnc4[nH]ncc24)CO[C@@H](C2CC2)C3)nc1` (single isomer, unassigned) [Example 109, (*S)-6-Cyclopropyl-2-(5-fluoropyridin-2-yl)-3-(1H-pyrazolo[3,4-b]pyridin-4-yl)-6,7-dihydro-4H-pyrazolo[5,1-c][1,4]oxazine], the half-maximal inhibitory concentration (IC50) in assay [1] stood at 15 nM; at human CSNK1D, 301 nM.

For `Fc1ccc(-c2nn3c(c2-c2ccn4nccc4c2)CC[C@@H]2[C@H]3C2(F)F)cc1` (stereo in doubt) [Example 354, (5a*R,6a*S)-6,6-difluoro-2-(4-fluorophenyl)-3-(pyrazolo[1,5-a]pyridin-4-yl)-5,5a,6,6a-tetrahydro-4H-cyclopropa[e]pyrazolo[1,5-a]pyridine], the IC50 in assay [1] was 18 nM; on human CSNK1D it was 71 nM.

On to `Cc1cc(-c2c(-c3ccc(F)cc3)nn3c2OCC2(CC2)C3)c2cn[nH]c2n1` [Example 461, 2′-(4-Fluorophenyl)-3′-(6-methyl-1H-pyrazolo[3,4-b]pyridin-4-yl)-5′H,7′H-spiro[cyclopropane-1,6′-pyrazolo[5,1-b][1,3]oxazine]], for which the IC50 in assay [1] worked out at 1 nM; at human CSNK1D it was 2 nM.

Take `CC1CCOc2c(-c3ccn4nccc4c3)c(-c3ccc(F)cn3)nn21` (centres unmarked) [Example 446, 2-(5-Fluoropyridin-2-yl)-7-methyl-3-(pyrazolo[1,5-a]pyridin-5-yl)-6,7-dihydro-5H-pyrazolo[5,1-b][1,3]oxazine]: the IC50 in assay [1] worked out at 184 nM; at human CSNK1D, 4340 nM.

As to `C[C@@H]1Cn2nc(-c3ccc(F)cn3)c(-c3ccnc4[nH]ncc34)c2CO1` (single isomer, unassigned) [Example 85, (*R)-2-(5-Fluoro-2-pyridyl)-6-methyl-3-(1H-pyrazolo[3,4-b]pyridin-4-yl)-6,7-dihydro-4H-pyrazolo[5,1-c][1,4]oxazine], the results for the IC50 (in assay [1]; on human CSNK1D) were 22 nM and 371 nM, respectively.

Take `Cc1cn2nccc2cc1-c1c(-c2ccc(F)cn2)nn2c1COC(C)(C)C2` [Example 382, 2-(5-Fluoro-2-pyridyl)-6,6-dimethyl-3-(6-methylpyrazolo[1,5-a]pyridin-5-yl)-4,7-dihydropyrazolo[5,1-c][1,4]oxazine]: the 50% inhibitory concentration (IC50) in assay [1] is 451 nM; on human CSNK1D, greater than 10000 nM.

In the case of `CC1(C)Cn2nc(-c3ccc(F)cn3)c(-c3c(F)cnc4[nH]ncc34)c2CO1` [Example 389, 3-(5-Fluoro-1H-pyrazolo[3,4-b]pyridin-4-yl)-2-(5-fluoropyridin-2-yl)-6,6-dimethyl-6,7-dihydro-4H-pyrazolo[5,1-c][1,4]oxazine], the IC50 in assay [1] amounted to 5 nM; at human CSNK1D it was 94 nM.

`Cc1cc(-c2c(-c3ccc(F)cn3)nn3c2COCC3(C)C)c2cn[nH]c2n1` [Example 123, 2-(5-Fluoro-2-pyridyl)-7,7-dimethyl-3-(6-methyl-1H-pyrazolo[3,4-b]pyridin-4-yl)-4,6-dihydropyrazolo[5,1-c][1,4]oxazine]: the values for the IC50 (in assay [1]; at human CSNK1D) were 111 nM and 2350 nM, respectively.

`Fc1ccc(-c2nn3c(c2-c2ccnc4[nH]ncc24)[C@@H]2CC[C@H]3C2)cc1` (single isomer, unassigned) [Example 60, 4*R,7*S)-2-(4-Fluorophenyl)-3-(1H-pyrazolo[3,4-b]pyridin-4-yl)-4,5,6,7-tetrahydro-4,7-methanopyrazolo[1,5-a]pyridine]: the results for the IC50 (in assay [1]; at human CSNK1D) were 1 nM and 3 nM, respectively.

In the case of `CC1(C)Cn2nc(-c3ccc(F)cn3)c(-c3ccnc4cc[nH]c34)c2CO1` [Example 149, 2-(5-Fluoro-2-pyridyl)-6,6-dimethyl-3-(1H-pyrrolo[3,2-b]pyridin-7-yl)-4,7-dihydropyrazolo[5,1-c][1,4]oxazine], the values for the IC50 (in assay [1]; at human CSNK1D) were 1420 nM and greater than 10000 nM, respectively.

Regarding `Cc1cc(-c2c(-c3ccc(F)cc3)nn3c2[C@H]2C[C@H]2C3)c2cn[nH]c2n1` (single isomer, unassigned) [Example 277, (3b*S,4a*R)-2-(4-Fluorophenyl)-3-(6-methyl-1H-pyrazolo[3,4-b]pyridin-4-yl)-3b,4,4a,5-tetrahydrocyclopropa[3,4]pyrrolo[1,2-b]pyrazole], the concentration for half-maximal inhibition (IC50) was 6 nM in assay [1] and 43 nM at human CSNK1D.

As for `COc1ccc2nccc(-c3c(-c4ccc(F)cn4)nn4c3OCCC4)c2n1` [Example 190, 2-(5-Fluoro-2-pyridyl)-3-(6-methoxy-1,5-naphthyridin-4-yl)-6,7-dihydro-5H-pyrazolo[5,1-b][1,3]oxazine], the half-maximal inhibitory concentration (IC50) in assay [1] stood at 4 nM; on human CSNK1D, 215 nM.

For `[2H]C([2H])([2H])[C@]1(C(F)(F)F)Cn2nc(-c3ccc(F)cn3)c(-c3cc(C)nc4[nH]nc(C)c34)c2CO1` (single isomer, unassigned) [Example 428, (*R)-3-(3,6-Dimethyl-1H-pyrazolo[3,4-b]pyridin-4-yl)-2-(5-fluoropyridin-2-yl)-6-(methyl-d3)-6-(trifluoromethyl)-6,7-dihydro-4H-pyrazolo[5,1-c][1,4]oxazine], the figures for the IC50 (in assay [1]; at human CSNK1D) were 9 nM and 76 nM, respectively.
